According to ChEMBL document CHEMBL1152560, “Substituted 2-arylbenzothiazoles as kinase inhibitors: hit-to-lead optimization” (Bioorg Med Chem, 2009):

Key:
[1] = target: Serine/threonine-protein kinase pim-1 (Homo sapiens) (UniProt P11309); assay: Residual activity of PIM1 at 1 uM by microplate scintillation counting
[2] = target: T1, Ephrin type-B receptor 3 (Homo sapiens) (UniProt P54753); assay: Residual activity of EPHB3 at 1 uM by microplate scintillation counting
T1 sequence (whole entry): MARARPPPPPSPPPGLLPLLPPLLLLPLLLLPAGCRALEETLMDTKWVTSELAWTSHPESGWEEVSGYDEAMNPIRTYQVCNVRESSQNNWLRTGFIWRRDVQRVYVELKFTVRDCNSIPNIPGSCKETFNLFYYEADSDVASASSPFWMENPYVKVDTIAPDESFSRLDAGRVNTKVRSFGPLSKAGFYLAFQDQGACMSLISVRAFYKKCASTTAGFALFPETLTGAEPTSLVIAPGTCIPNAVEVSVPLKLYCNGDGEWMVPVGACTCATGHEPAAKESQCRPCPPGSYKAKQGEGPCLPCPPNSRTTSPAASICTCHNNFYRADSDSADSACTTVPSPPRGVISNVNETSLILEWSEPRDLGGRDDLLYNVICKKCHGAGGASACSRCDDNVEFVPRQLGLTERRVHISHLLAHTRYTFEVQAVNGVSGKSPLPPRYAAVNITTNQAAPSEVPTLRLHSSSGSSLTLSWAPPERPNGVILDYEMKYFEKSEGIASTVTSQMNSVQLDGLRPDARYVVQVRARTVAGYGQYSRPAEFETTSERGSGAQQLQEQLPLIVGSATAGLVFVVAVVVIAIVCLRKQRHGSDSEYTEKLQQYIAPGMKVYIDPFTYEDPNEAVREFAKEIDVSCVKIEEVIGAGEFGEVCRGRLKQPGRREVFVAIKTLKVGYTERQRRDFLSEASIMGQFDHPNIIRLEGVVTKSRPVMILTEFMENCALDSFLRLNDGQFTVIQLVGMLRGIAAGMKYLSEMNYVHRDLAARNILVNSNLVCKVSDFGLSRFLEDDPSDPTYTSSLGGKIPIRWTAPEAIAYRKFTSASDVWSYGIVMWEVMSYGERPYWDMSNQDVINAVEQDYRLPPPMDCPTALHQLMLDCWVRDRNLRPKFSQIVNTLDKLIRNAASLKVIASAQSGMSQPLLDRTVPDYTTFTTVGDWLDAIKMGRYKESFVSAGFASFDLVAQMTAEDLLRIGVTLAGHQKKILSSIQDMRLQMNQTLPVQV

[3] = target: Rho-associated protein kinase 2 (Homo sapiens) (UniProt O75116); assay: Residual activity of ROCK2 at 0.1 uM by microplate scintillation counting
[4] = target: LIM domain kinase 1 (Homo sapiens) (UniProt P53667); assay: Residual activity of LIMK1 at 0.1 uM by microplate scintillation counting
[5] = target: CDK1/Cyclin A (Homo sapiens) (UniProt P06493+P20248); assay: Residual activity of CDK1/Cyclin A at 1 uM by microplate scintillation counting; type: protein-complex assay
[6] = target: T2, Serine/threonine-protein kinase D2 (Homo sapiens) (UniProt Q9BZL6); assay: Residual activity of PRKD2 at 1 uM by microplate scintillation counting
T2 sequence (whole entry): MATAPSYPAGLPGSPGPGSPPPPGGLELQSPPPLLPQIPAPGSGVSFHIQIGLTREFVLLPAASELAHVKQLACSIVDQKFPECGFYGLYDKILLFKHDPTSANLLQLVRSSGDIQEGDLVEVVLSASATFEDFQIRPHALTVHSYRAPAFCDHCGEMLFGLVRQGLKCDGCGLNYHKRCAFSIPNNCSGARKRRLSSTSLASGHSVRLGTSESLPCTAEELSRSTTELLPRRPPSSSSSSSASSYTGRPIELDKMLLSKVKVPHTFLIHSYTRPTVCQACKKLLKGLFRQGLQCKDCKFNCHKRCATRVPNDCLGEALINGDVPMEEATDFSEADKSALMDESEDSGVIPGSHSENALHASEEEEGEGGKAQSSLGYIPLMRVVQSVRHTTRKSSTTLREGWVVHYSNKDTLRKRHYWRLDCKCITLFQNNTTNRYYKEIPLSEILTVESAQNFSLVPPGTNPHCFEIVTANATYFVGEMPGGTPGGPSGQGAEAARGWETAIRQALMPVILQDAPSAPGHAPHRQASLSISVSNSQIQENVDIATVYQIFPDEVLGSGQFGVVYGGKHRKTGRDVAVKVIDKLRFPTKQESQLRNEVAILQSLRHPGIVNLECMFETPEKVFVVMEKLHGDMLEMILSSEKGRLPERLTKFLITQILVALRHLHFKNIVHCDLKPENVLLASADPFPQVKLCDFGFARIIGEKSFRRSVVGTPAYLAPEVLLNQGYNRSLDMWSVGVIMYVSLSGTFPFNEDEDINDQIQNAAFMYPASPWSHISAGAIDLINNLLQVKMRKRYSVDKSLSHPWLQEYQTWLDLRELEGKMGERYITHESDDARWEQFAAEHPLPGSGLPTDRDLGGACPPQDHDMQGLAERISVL

[7] = target: T3, Phosphorylase b kinase gamma catalytic chain, liver/testis isoform (Homo sapiens) (UniProt P15735); assay: Residual activity of PHKG2 at 10 uM by microplate scintillation counting
T3 sequence (whole entry): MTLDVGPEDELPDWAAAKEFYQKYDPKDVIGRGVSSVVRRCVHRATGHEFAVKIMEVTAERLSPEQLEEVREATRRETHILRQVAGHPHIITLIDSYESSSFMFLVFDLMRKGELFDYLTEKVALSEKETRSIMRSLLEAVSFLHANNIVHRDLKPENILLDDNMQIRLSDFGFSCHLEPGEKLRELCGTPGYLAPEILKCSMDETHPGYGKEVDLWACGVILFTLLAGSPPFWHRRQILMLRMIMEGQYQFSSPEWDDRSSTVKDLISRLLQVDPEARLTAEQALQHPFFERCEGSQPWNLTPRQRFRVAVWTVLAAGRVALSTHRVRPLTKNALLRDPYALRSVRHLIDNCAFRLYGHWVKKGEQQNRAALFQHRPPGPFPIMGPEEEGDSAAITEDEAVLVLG

[8] = target: Tyrosine-protein kinase ABL1 (Homo sapiens) (UniProt P00519); assay: Residual activity of wild type ABL1 at 10 uM by microplate scintillation counting
Chain of Tyrosine-protein kinase ABL1 (Homo sapiens) (P00519 whole entry): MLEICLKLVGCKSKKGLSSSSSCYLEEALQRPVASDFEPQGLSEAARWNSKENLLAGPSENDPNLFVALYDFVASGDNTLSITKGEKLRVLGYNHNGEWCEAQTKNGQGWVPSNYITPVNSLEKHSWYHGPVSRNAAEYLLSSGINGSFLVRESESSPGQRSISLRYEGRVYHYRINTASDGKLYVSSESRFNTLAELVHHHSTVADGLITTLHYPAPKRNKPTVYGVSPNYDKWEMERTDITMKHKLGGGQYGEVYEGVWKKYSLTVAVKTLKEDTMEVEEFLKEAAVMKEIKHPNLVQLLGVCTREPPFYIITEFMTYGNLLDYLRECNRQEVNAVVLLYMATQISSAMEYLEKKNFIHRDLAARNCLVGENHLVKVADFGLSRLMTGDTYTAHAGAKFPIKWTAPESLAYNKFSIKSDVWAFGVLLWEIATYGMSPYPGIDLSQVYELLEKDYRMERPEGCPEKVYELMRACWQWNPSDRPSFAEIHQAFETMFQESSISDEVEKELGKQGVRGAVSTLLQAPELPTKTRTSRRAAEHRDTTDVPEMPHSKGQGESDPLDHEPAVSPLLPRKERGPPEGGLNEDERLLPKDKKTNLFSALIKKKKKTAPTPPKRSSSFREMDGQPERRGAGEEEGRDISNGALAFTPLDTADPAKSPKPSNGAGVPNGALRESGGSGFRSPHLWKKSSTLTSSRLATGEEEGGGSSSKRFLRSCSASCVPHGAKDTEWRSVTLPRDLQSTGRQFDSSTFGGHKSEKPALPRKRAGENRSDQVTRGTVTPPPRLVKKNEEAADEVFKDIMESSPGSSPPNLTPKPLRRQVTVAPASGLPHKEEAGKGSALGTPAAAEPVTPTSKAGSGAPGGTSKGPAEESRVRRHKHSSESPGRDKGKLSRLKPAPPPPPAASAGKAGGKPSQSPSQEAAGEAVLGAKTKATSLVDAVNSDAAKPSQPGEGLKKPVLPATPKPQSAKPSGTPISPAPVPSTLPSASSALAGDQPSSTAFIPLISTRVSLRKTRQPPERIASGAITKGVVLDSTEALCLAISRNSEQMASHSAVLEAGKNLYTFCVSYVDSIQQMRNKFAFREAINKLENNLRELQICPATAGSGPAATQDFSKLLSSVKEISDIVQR

Chain of LIM domain kinase 1 (Homo sapiens) (P53667 whole entry, looked up, the tested form may be a part): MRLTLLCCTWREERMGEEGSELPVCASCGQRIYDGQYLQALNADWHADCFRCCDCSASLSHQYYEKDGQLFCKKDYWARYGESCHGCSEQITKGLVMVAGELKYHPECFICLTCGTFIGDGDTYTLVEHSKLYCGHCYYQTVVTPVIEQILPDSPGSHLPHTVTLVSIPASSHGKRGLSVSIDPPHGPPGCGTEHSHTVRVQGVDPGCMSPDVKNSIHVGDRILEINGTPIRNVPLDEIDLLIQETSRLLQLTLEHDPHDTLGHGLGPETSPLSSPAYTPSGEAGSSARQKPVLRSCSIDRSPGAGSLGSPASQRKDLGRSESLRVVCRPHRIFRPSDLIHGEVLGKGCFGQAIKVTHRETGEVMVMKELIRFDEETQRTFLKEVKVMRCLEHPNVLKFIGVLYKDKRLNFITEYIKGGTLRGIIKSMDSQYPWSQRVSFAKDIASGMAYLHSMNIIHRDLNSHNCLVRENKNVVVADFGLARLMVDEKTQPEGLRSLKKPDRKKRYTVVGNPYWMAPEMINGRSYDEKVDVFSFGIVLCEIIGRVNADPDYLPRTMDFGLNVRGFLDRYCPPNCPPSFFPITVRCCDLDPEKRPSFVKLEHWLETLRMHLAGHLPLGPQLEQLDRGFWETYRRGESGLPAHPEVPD
Chain of Rho-associated protein kinase 2 (Homo sapiens) (O75116 whole entry, looked up, the tested form may be a part): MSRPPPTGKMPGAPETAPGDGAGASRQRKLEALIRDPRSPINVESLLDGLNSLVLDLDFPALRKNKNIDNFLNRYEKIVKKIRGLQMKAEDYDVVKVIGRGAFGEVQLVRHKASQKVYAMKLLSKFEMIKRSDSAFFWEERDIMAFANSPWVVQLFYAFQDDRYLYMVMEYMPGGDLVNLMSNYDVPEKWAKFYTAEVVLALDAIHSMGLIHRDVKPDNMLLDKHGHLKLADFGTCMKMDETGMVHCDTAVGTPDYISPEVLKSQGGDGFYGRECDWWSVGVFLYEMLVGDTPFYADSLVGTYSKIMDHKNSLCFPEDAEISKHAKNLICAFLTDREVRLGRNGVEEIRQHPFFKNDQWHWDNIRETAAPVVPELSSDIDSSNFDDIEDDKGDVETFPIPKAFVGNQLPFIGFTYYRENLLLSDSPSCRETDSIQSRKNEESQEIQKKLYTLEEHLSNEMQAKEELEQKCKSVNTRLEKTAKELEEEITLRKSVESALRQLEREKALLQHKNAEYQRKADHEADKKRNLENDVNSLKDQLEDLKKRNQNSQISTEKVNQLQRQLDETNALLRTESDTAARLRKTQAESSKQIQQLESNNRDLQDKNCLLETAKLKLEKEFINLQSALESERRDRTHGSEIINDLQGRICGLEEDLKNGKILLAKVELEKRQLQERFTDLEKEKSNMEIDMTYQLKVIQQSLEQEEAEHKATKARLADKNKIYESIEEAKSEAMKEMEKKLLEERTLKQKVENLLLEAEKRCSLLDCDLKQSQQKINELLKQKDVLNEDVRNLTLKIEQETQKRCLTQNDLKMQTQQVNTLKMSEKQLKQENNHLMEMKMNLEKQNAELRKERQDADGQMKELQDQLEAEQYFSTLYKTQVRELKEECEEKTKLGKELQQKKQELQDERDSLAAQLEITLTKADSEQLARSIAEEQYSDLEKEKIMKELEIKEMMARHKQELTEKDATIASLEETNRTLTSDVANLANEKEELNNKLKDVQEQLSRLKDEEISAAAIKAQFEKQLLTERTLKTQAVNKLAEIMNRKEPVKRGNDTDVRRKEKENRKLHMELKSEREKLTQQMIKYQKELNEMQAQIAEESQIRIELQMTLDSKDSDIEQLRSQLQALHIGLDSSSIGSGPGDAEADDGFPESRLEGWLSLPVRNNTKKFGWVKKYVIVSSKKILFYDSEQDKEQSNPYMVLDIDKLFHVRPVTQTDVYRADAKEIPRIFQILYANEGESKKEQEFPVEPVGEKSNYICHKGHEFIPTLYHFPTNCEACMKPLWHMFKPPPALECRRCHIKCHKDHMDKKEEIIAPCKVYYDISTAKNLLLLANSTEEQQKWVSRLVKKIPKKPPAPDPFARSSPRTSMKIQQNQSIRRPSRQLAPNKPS
Chain of CDK1/Cyclin A (Homo sapiens) (P06493 whole entry, looked up): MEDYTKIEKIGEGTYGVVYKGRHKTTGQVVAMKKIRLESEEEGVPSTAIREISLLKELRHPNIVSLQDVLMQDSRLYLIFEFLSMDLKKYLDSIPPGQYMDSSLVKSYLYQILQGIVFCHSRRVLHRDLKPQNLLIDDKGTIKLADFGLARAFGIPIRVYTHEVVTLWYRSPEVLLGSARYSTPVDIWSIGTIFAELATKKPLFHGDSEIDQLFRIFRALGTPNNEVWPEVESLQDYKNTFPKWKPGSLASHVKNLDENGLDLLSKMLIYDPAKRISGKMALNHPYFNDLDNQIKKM
Chain of CDK1/Cyclin A (Homo sapiens) (P20248 whole entry, looked up): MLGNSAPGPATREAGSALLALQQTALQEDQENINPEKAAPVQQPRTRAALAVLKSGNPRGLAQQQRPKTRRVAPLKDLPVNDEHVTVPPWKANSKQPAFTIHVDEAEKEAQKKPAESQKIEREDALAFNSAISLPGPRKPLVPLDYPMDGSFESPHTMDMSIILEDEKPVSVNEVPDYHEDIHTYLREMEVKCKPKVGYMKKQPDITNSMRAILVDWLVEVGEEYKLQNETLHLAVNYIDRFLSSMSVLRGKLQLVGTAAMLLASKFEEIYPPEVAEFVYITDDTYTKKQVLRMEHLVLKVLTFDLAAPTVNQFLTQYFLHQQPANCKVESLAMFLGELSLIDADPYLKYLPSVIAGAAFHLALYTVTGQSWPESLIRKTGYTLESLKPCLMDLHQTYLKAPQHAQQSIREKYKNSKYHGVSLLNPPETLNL
Chain of Serine/threonine-protein kinase pim-1 (Homo sapiens) (P11309 whole entry, looked up): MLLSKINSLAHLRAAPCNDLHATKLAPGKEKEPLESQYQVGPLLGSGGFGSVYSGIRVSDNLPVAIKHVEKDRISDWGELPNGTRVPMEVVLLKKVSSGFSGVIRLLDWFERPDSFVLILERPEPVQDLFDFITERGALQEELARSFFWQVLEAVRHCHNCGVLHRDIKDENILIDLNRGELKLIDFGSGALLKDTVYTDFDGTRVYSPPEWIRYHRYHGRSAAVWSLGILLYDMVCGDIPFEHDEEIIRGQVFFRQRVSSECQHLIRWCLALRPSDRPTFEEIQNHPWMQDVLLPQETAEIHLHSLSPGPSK

residual activity [1] [%]	residual activity [2] [%]	residual activity [3] [%]	residual activity [4] [%]	residual activity [5] [%]	residual activity [6] [%]	residual activity [7] [%]	residual activity [8] [%]	Compound
109	108	98	68	101	82	103	28	COc1cc2c(Oc3ccc(-c4nc5ccccc5s4)cc3)ncnc2cc1OCCCN1CCN(C)CC1
102	106	82	77	102	90	88	26	COc1cc2c(Oc3ccc(-c4nc5ccccc5s4)cc3F)ncnc2cc1OCCCN1CCN(C)CC1
104	105	119	76	111	94	93	41	COc1cc2c(Oc3ccc(-c4nc5ccccc5s4)cc3)ncnc2cc1OCCCN1CCCC1
